“Also recorded” adds a separate entry of the source.
Columns and labels:
[1] = test system: IL2R-CISC V3 expressing human CD4+ T cells; assay: Expansion of IL2R-CISC expressing cells in culture (cell numbers); assay type: cell-based; conditions: for Dose inducing the most robust cell expansion / Cell expansion: 30 days
[2] = test system: IL2R-CISC expressing primary human T-cells; assay: Selective enrichment of IL2R-CISC expressing T cells, flow cytometry of cis-linked GFP/mCherry marker; assay type: cell-based; conditions: for mCherry positive cells: IL2R-CISC V3 cells, by 15 days culture in the ligand, starting transduced population 64% mCherry positive
Description: Each architecture of IL2R-CISC (i.e. 1210, 1211, and 1233) was cis-linked together with GFP using 2A sequences, and placed under the control of an MND promoter in a lentiviral expression cassette (as schematized in FIG. 5, bottom). Lentiviral particles from each IL2R-CISC architecture were generated and used to transduce primary human T-cells.
Lentiviral particles from each IL2R-CISC architecture were generated and used to transduce primary human T-cells. CD4+ T cells were activated for 60 hours. […] Lentivirus was transduced with or without beads, using 15 μL of IL2R-CISC and 3 μL of MND-GFP control with protamine sulfate at 4 μg/mL (0.5 mL medium) in a 24-well dish. The cells were then spinoculated at 800 g for 30 minutes at 33° C. followed by the addition of 1.5 mL medium after 4 hours of incubation. […] The GFP signal was determined and the IL2R-CISC level of transduced T cells was determined.
The T cell viability was determined and the expression of GFP+ population and IL2R-CISC expression was determined by using anti-FRB antibody and a secondary APC antibody.

[3] = test system: gene targeted CD4+ T cells expressing GFP-FOXP3 and IL2R-CISC V3; assay: Targeted knock-in of MND promoter and CISC into FOXP3 locus, enrichment of gene targeted cells (GFP-FOXP3 flow cytometry); assay type: cell-based; conditions: 15 days culture; 10 nM ligand
Description: The described targeting approach integrates a promoter and both components of an IL2R-CISC V3 into the FOXP3 locus in line with a GFP fusion to the native FOXP3 gene. This architecture is intended to allow for ligand-induced selection of cells which have undergone an accurate gene targeting event.
FIG. 26 depicts a schematic diagram showing an experimental design of targeted knock-in of MND promoter and CISC. This represents an experimental schematic of how a CRISP/Cas9 nuclease is used to induce targeted integration of the cassettes from FIG. 25 into the FOXP3 locus, followed by expansion of the gene targeted cells in the indicated IL2R-CISC ligand.
Following targeted integration into the FOXP3 locus utilizing the indicated approaches (no targeting, or RNP plus each of the cassettes described in FIG. 25), cells were cultured in the indicated conditions for 15 days, and then analyzed by flow cytometry for GFP-FOXP3 expression. […] Flow panels are representative of IL2R-CISC GFP-FOXP3 expression by cells cultured in rapamycin.
Following targeted integration into the FOXP3 locus utilizing the indicated approaches, cells were cultured in the indicated conditions for 15 days, and then analyzed by flow cytometry for GFP-FOXP3 expression.
In addition, the targeted knock-in of MND promoter and CISC was tested to enrich and/or expand gene targeted T cells. […]

[4] = test system: STAT5 phosphorylation in IL2R-CISC expressing T cells; assay: phospho-STAT5 signaling after 20 days of culture; assay type: cell-based, human; conditions: mock, GFP and IL2R-CISC cell types
[5] = test system: Akt activation in IL2R-CISC human CD4+ T cells; assay: Western blot for Akt activation; assay type: cell-based; conditions: 15 days rapamycin 1 nM, 48 h cytokine starvation, stimulation with rapamycin 100 nM for 20 minutes
Description: IL2R-CISC human CD4+ T cells were analyzed following 15 days of rapamycin treatment at 1 nM, following by cytokine starvation for 48 hours.

| Compound | Dose inducing the most robust cell expansion ([1]; 100 nM AP21967 (vs 10 nM)) | Cell expansion ([1]; AP21967 10 nM and 100 nM) | mCherry positive cells [2] [%] | CD4+ T cell survival ([2]; IL2R-CISC V3 construct, in response to AP21967 (FIG. 15)) | Enrichment of FOXP3 expressing (gene targeted) cells [3] | Expansion of mCherry positive cell numbers ([1]; 25 days) | Dose inducing the most robust cell expansion ([1]; 1 nM rapamycin (vs 10 nM)) | Cell expansion ([1]; rapamycin 1 nM and 10 nM) | Phosphorylation of STAT5 in response to treatment [4] | Enrichment for IL2R-CISC expression read out by cis-linked GFP marker ([2]; 1233 architecture, 4 days post transduction, 2 days in rapamycin alone (1 nM)) | Enrichment of the GFP marker ([2]; 1233 architecture, 6 days post transduction, 4 days in rapamycin) | Enrichment of GFP+ cells ([2]; 1233 architecture, 9 days post transduction, 7 days in rapamycin) | Cells expressing the 1233 IL2R-CISC enriched to % of the cell population (GFP+) ([2]; 1233 architecture, 17 days post transduction, 15 days culture in rapamycin alone (1 nM)) [%] | Akt activation [5] |
| --- | --- | --- | --- | --- | --- | --- | --- | --- | --- | --- | --- | --- | --- | --- |
| CO[C@H]1[C@@H](O)[C@H](C)C[C@H](C)/C=C/C=C/C=C(\C)[C@@H](c2c[nH]c3c(C)cccc23)C[C@@H]2CC[C@@H](C)[C@@](O)(O2)C(=O)C(=O)N2CCCC[C@H]2C(=O)O[C@H]([C@H](C)C[C@@H]2CC[C@@H](O)[C@H](OC)C2)C[C@H](O)[C@H](C)/C=C(\C)[C@H]1O [AP21967, C-16-(S)-7-methylindolerapamycin] | most robust cell expansion | promotes CD4+ T cell proliferation; also recorded: significant AP21967-induced expansion | > 93 | promotes human CD4+ T cell survival | substantial enrichment of FOXP3 expressing cells | – | – | – | – | – | – | – | – | – |
| CO[C@H]1C[C@@H]2CC[C@@H](C)[C@@](O)(O2)C(=O)C(=O)N2CCCC[C@H]2C(=O)O[C@H]([C@H](C)C[C@@H]2CC[C@@H](O)[C@H](OC)C2)CC(=O)[C@H](C)/C=C(\C)[C@@H](O)[C@@H](OC)C(=O)[C@H](C)C[C@H](C)/C=C/C=C/C=C/1C [rapamycin, (3S,6R,7E,9R,10R,12R,14S,15E,17E,19E,21S,23S,26R,27R,34aS)-9,10,12,13,14,21,22,23,24,25,26,27,32,33,34,34a-hexadecahydro-9,27-dihydroxy-3-[(1R)-2-[(1S,3R,4R)-4-hydroxy-3-methoxycyclohexyl]-1-methylethyl]-10,21-dimethoxy-6,8,12,14,20,26-hexamethyl-23,27-epoxy-3H-pyrido[2,1-c][1,4] oxaazacyclohentriacontine-1,5,11,28,29 (4H,6H,31H)-pentone] | – | – | > 93 | – | substantial enrichment of FOXP3 expressing cells | significant rapamycin-induced expansion | most robust cell expansion | significant rapamycin-induced expansion | only IL2R-CISC expressing cells respond to rapamycin with phosphorylation of STAT5 | enriched for IL2R-CISC expression; also recorded: beginning to enrich for IL2R-CISC expression | further enrichment of the GFP marker for 1233 | further enrichment of the 1233 GFP+ cells | 97 | Akt activation |
